“Also recorded” adds a separate entry of the source.
Legend:
[1] = cited from earlier work
[2] = design: method as in Pei et al. [2008]; conditions: oral administration at 100 mg/kg; ref Pei et al. [2008]; cited from earlier work
[3] = Tissue distribution of Sal A in rats; format: in vivo, Sprague-Dawley rats; conditions: single oral dose 5 mg/kg
Procedure: Twenty-four healthy, intact Sprague–Dawley rats (male/female, 1/1, 185–215 g, Certificate No. SCXK 2006-0009) were purchased from Vital River Laboratories (Beijing, China). The rats were maintained in air-conditioned animal quarters with alternating 12 h light/dark cycles at a room temperature of 22 ± 2 °C and a relative humidity of 50 ± 10%. The rodents were given a commercial rat chow and water ad libitum. The experiment started after acclimation to the facilities for 7 days. The animal protocols used in this study followed guidelines set forth by the Ethic Committee of Laboratory Animals of the Affiliated Hospital of Qingdao University (QYFYKYLL 2013-2-4-01).
Rats were fasted overnight (∼12 h) and had free access to water throughout the experimental period. In our study, rats were treated as followed: 18 rats were divided into 3 groups randomly (6 rats/group, male/female =1/1) and were all given a single oral dose of 5 mg/kg. The animals were sacrificed 10 min, 1 and 2 h postdosing and stomach, small intestine, heart, liver, spleen, lung, kidney and brain were harvested for drug analysis. The remaining six rats were given normal saline as control. Tissue samples were frozen and maintained at –80 °C immediately until analysis.
Tissues were homogenized in normal saline (2 mL/g, except 6 mL/g for stomach) using a FLUKO F6/10 for 1–2 min over an ice bath. The aliquots of 200 μL homogenized tissues were used for the LC–MS analysis. The remaining steps were the same as sample preparation in “Pharmacokinetic study in vivo”.

[4] = design: method as in Lai et al. [2011]; conditions: rats, salvianolic acid extract 800 mg/kg oral (Sal A 5.71% of mixture); ref Lai et al. [2011]; cited from earlier work
[5] = Excretion of Sal A from rats (feces, urine, bile; UPLC–MS/MS); format: in vivo, Sprague-Dawley rats; conditions: single oral dose 20 mg/kg
Procedure: Twelve healthy, intact Sprague-Dawley rats (male/female, 1/1, 185-215 g, Certificate No. SCXK 2006-0009) were purchased from Vital River Laboratories (Beijing, China). The rats were maintained in air-conditioned animal quarters with alternating 12 h light/dark cycles at a room temperature of 22 ± 2 °C and a relative humidity of 50 ± 10%. The rodents were given a commercial rat chow and water ad libitum. The experiment started after acclimation to the facilities for 7 days. The studies were conducted under protocols approved by the Ethics Committee of Laboratory Animals of the Affiliated Hospital of Qingdao University ([…] 2013-2-4-01). In the urine and feces excretion studies, rats were treated as follows. After acclimation to the facilities for 7 days in metabolism cages and being fasted overnight (∼12 h) with free access to water, six rats (male/female, 1/1) were given a single dose of Sal A at 20 mg/kg orally. Blank feces and urine were got prior to administration. […] These samples were immediately frozen and maintained at -80 °C until analysis. In the bile excretion study, rats were treated as follows. After acclimation to the facilities for 7 days and being fasted overnight (∼12 h) with free access to water, six rats (male/female, 1/1) received a bile duct intubation surgery. An oral dose of 20 mg/kg were given to the postoperative awake rats, and bile samples were collected prior and after the administration (from 0 to 2, 2 to 4, 4 to 6, 6 to 8, 8 to 12 and 12 to 24 h). The samples were immediately frozen and maintained at -80 °C immediately until analysis. After drying, feces were soaked in purified water containing VC 100 μg/mL (5 mL/g) overnight and treated with ultrasonic for 10 min. Homogenate was centrifuged at 13,400 rpm for 10 min. 200 μL of the supernatant was got for the UPLC-MS/MS analysis, along with 200 μL of urine and bile samples. Sample preparation was the same as sample preparation in “Pharmacokinetic study in vivo”.

[6] = design: method as in Sun et al. [2013]; conditions: Beagle dogs, oral, pure form; ref Sun et al. [2013]; cited from earlier work

presence in brain homogenate [3]: detected in brain homogenate | time to distribute into tissues [3]: ≤ 10 min | excretion via bile, mean % of the dose ([5]; bile duct intubated rats, 0–24 h): 0.00373% | dose excreted ([5]; both sexes, Sprague-Dawley, rat, feces, bile and urine, rats, read-out: recovery (accumulated excretion through feces, bile and urine), % of administered dose): < 1% | urinary excretion, mean % of the dose ([5]; rats, 0–96 h): 0.00252%
SMILES: O=C(/C=C/c1ccc(O)c(O)c1/C=C/c1ccc(O)c(O)c1)O[C@H](Cc1ccc(O)c(O)c1)C(=O)O [Sal A, Salvianolic acid A]
stability in intestinal alkaline environment ([1]; alkaline environment, ref Liu et al. [2011]): instability | stability in distilled water ([1]; distilled water, room temperature, ref Xu et al. [2008]): instable | plasma half-life [2]: 3.29 h | tissue with highest concentration ([3]; 10 min, 1 and 2 h, 5 mg/kg): stomach followed by small intestine and liver; also recorded: highest tissue concentration was found in stomach | absolute bioavailability of Sal A [4]: 2.5% | absolute bioavailability [6]: 1.25%
